Measurements reported in article PMC4139099 (Biochimica et biophysica acta, 2013).
Where no end group is shown, it is not given here.

Tests used:
[1] = target: T1, trypsin (Sus scrofa, UniProt P00761); conditions: cited from earlier work
[2] = target: T2, chymotrypsin (Bos taurus, UniProt P00766); conditions: cited from earlier work
[3] = target: pepsin (Sus scrofa, UniProt P00791); conditions: cited from earlier work
[4] = test system: murine cerebrocortical neuron cells; assay: Veratridine-induced neuronal Ca2+ influx; type: cell-based; conditions: data not shown
[5] = target: proteinase K (Parengyodontium album, UniProt P06873); assay: Proteolytic and thermal stability against proteinase K; type: in vitro ADME; conditions: proteinase K from Tritirachium album; 50 °C, up to 48 h
Chain of proteinase K (P06873 106-384): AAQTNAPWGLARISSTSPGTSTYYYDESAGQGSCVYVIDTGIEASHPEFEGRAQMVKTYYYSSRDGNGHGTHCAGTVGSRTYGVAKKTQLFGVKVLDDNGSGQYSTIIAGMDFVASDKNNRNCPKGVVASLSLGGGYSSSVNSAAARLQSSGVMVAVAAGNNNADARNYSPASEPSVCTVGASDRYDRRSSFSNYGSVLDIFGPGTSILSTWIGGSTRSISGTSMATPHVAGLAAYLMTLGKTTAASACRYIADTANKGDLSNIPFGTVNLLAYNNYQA

[6] = target: T2, chymotrypsin; assay: Chymotrypsin inhibitory assay; type: biochemical; conditions: up to the concentration of 100 μg/mL
[7] = Solubility in water or low pH buffers; conditions: pure water or low pH buffers
[8] = test system: chicks; assay: Toxicity and behavior in chicks; type: in vivo; conditions: i.c.v. 60 μg/g
[9] = test system: mice; assay: Toxicity and behavior in mice; type: in vivo; conditions: i.p. 40 μg/g
[10] = target: T1, trypsin; assay: Trypsin inhibitory assay; type: biochemical; conditions: up to the concentration of 100 μg/mL
[11] = target: T3, thermolysin (Bacillus thermoproteolyticus, UniProt P00800); assay: Proteolytic and thermal stability against thermolysin; type: in vitro ADME; conditions: thermolysin from Bacillus thermoproteolyticus Rokko; 65 °C, up to 12 h
T3 sequence (P00800 233-548): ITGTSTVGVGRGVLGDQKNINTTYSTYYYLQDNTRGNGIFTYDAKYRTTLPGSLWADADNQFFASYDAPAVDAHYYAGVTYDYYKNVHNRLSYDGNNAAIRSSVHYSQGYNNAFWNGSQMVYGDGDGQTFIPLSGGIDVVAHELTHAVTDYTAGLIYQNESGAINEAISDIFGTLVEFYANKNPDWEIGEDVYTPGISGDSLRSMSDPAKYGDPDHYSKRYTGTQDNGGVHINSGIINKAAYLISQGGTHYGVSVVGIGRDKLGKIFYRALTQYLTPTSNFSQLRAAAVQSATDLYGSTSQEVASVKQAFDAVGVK

T1 sequence (P00761 9-231): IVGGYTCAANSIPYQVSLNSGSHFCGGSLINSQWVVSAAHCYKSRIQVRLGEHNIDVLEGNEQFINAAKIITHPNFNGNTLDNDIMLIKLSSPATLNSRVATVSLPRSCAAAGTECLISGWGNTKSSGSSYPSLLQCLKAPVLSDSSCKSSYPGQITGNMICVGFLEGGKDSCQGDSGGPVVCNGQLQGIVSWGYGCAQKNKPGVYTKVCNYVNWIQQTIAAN
Chain of pepsin (P00791 60-385): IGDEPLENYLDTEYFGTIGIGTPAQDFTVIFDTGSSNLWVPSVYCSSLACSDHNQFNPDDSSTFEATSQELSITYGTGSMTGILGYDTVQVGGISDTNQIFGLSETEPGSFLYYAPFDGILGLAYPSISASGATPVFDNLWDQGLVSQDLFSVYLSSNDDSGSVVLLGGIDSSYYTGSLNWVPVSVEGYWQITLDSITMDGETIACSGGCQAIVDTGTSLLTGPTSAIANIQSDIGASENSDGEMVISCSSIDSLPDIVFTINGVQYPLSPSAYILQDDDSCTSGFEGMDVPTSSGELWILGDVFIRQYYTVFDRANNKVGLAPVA

Substance	stability to trypsin [1]	stability towards trypsin [1]	stability towards chymotrypsin [2]	stability towards pepsin [3]	effect on neuronal Ca2+ influx [4]	proteolytic and thermal stability against proteinase K [5]	effect in chymotrypsin inhibitory assay [6]	solubility [7]	toxic effects or behavior changes in chicks [8]	toxic effects or behavior changes in mice [9]	effect in trypsin inhibitory assay [10]	proteolytic and thermal stability against thermolysin [11]
ω-conotoxin MVIIA [ziconotide]	unstable	–	–	–	–	–	–	–	–	–	–	–
kalata B1 (GLPVCGETCVGGTCNTPGCTCSWPVCTRN; not fully specified; ends and bridges not checked; UniProt P56254 89-117, looked up)	–	exhibits stability	exhibits stability	exhibits stability	–	–	–	–	–	–	–	–
asteropsin C [ASPC]	–	–	–	–	no effect	exceptional proteolytic and thermal stability	no effects	virtually insoluble	no toxic effects or behavior changes	no toxic effects or behavior changes	no effects	–
asteropsin A [ASPA]	–	–	–	–	–	exceptional proteolytic and thermal stability	no effects	–	no toxic effects or behavior changes	no toxic effects or behavior changes	no effects	exceptional proteolytic and thermal stability
